Assays:
[1] = biological target: Kappa-type opioid receptor (Homo sapiens) (UniProt P41145); details: Compound concentration 10.0 uM
[2] = biological target: G protein-coupled receptor kinase 4 (Homo sapiens) (UniProt P32298); details: Compound concentration 1000.0 nM
[3] = biological target: Calcium/calmodulin-dependent protein kinase type 1 (Homo sapiens) (UniProt Q14012); details: Compound concentration 1000.0 nM
[4] = biological target: Tyrosine-protein kinase JAK1 (Homo sapiens) (UniProt P23458); details: Compound concentration 1000.0 nM
[5] = biological target: Ribosomal protein S6 kinase alpha-2 (Homo sapiens) (UniProt Q15349); details: Compound concentration 1000.0 nM
[6] = biological target: MAP kinase-interacting serine/threonine-protein kinase 2 (Homo sapiens) (UniProt Q9HBH9); details: Compound concentration 1000.0 nM
[7] = biological target: 5-hydroxytryptamine receptor 1E (Homo sapiens) (UniProt P28566); details: Compound concentration 10.0 uM
[8] = tested on: Epidermal growth factor receptor (Homo sapiens), P00533 [UNDEFINED MUTATION]; details: Compound concentration 1000.0 nM
[9] = biological target: Serine/threonine-protein kinase 33 (Homo sapiens) (UniProt Q9BYT3); details: Compound concentration 1000.0 nM
[10] = biological target: Bone morphogenetic protein receptor type-1A (Homo sapiens) (UniProt P36894); details: Compound concentration 1000.0 nM
[11] = biological target: Activated CDC42 kinase 1 (Homo sapiens) (UniProt Q07912); details: Compound concentration 1000.0 nM
[12] = biological target: Mitogen-activated protein kinase 3 (Homo sapiens) (UniProt P27361); details: Compound concentration 1000.0 nM
[13] = biological target: Serine/threonine-protein kinase LATS1 (Homo sapiens) (UniProt O95835); details: Compound concentration 1000.0 nM
[14] = biological target: Dual serine/threonine and tyrosine protein kinase (Homo sapiens) (UniProt Q6XUX3); details: Compound concentration 1000.0 nM
[15] = biological target: Mitogen-activated protein kinase kinase kinase kinase 3 (Homo sapiens) (UniProt Q8IVH8); details: Compound concentration 1000.0 nM
[16] = biological target: Death-associated protein kinase 1 (Homo sapiens) (UniProt P53355); details: Compound concentration 1000.0 nM
[17] = biological target: RAC-alpha serine/threonine-protein kinase (Homo sapiens) (UniProt P31749); details: Compound concentration 1000.0 nM
[18] = biological target: Ribosomal protein S6 kinase beta-1 (Homo sapiens) (UniProt P23443); details: Compound concentration 1000.0 nM
[19] = biological target: Eukaryotic translation initiation factor 2-alpha kinase 1 (Homo sapiens) (UniProt Q9BQI3); details: Compound concentration 1000.0 nM
[20] = biological target: Serine/threonine-protein kinase 16 (Homo sapiens) (UniProt O75716); details: Compound concentration 1000.0 nM
[21] = biological target: Fibroblast growth factor receptor 3 (Homo sapiens) (UniProt P22607); details: Compound concentration 1000.0 nM
[22] = biological target: Casein kinase I isoform gamma-1 (Homo sapiens) (UniProt Q9HCP0); details: Compound concentration 1000.0 nM
[23] = biological target: Mitogen-activated protein kinase kinase kinase 1 (Homo sapiens) (UniProt Q13233); details: Compound concentration 1000.0 nM
[24] = biological target: Peripheral plasma membrane protein CASK (Homo sapiens) (UniProt O14936); details: Compound concentration 1000.0 nM
[25] = biological target: Serine/threonine-protein kinase MAK (Homo sapiens) (UniProt P20794); details: Compound concentration 1000.0 nM
[26] = biological target: Cyclin-dependent kinase 2 (Homo sapiens) (UniProt P24941); details: Compound concentration 1000.0 nM
[27] = biological target: Tyrosine-protein kinase Fyn (Homo sapiens) (UniProt P06241); details: Compound concentration 1000.0 nM
[28] = biological target: Tyrosine-protein kinase Lyn (Homo sapiens) (UniProt P07948); details: Compound concentration 1000.0 nM
[29] = biological target: Dual specificity protein kinase CLK1 (Homo sapiens) (UniProt P49759); details: Compound concentration 1000.0 nM
[30] = biological target: Cyclin-dependent kinase 15 (Homo sapiens) (UniProt Q96Q40); details: Compound concentration 1000.0 nM
[31] = biological target: Serine/threonine-protein kinase MARK1 (Homo sapiens) (UniProt Q9P0L2); details: Compound concentration 1000.0 nM
[32] = biological target: Mitogen-activated protein kinase kinase kinase 2 (Homo sapiens) (UniProt Q9Y2U5); details: Compound concentration 1000.0 nM
[33] = tested on: Tyrosine-protein kinase ABL1 (Homo sapiens), P00519 [Y253F]; details: Compound concentration 1000.0 nM
[34] = biological target: 5-hydroxytryptamine receptor 7 (Homo sapiens) (UniProt P34969); details: Compound concentration 10.0 uM
[35] = biological target: Phosphorylase b kinase regulatory subunit alpha, liver isoform (Homo sapiens) (UniProt P46019); details: Compound concentration 1000.0 nM
[36] = biological target: Vascular endothelial growth factor receptor 2 (Homo sapiens) (UniProt P35968); details: Compound concentration 1000.0 nM
[37] = biological target: Ribosomal protein S6 kinase alpha-6 (Homo sapiens) (UniProt Q9UK32); details: Compound concentration 1000.0 nM
[38] = biological target: Serine/threonine-protein kinase Nek11 (Homo sapiens) (UniProt Q8NG66); details: Compound concentration 1000.0 nM
[39] = biological target: TRAF2 and NCK-interacting protein kinase (Homo sapiens) (UniProt Q9UKE5); details: Compound concentration 1000.0 nM
[40] = biological target: Tyrosine-protein kinase ABL1 (Homo sapiens) (UniProt P00519); details: Compound concentration 1000.0 nM
[41] = biological target: Sodium-dependent noradrenaline transporter (Homo sapiens) (UniProt P23975); details: Compound concentration 10.0 uM
[42] = biological target: Cyclin-dependent kinase-like 1 (Homo sapiens) (UniProt Q00532); details: Compound concentration 1000.0 nM
[43] = biological target: Serine/threonine-protein kinase RIO3 (Homo sapiens) (UniProt O14730); details: Compound concentration 1000.0 nM
[44] = biological target: Serine/threonine-protein kinase BRSK1 (Homo sapiens) (UniProt Q8TDC3); details: Compound concentration 1000.0 nM
[45] = biological target: Mitogen-activated protein kinase kinase kinase 14 (Homo sapiens) (UniProt Q99558); details: Compound concentration 1000.0 nM

Serine/threonine-protein kinase BRSK1 (Homo sapiens), sequence (Q8TDC3 whole entry): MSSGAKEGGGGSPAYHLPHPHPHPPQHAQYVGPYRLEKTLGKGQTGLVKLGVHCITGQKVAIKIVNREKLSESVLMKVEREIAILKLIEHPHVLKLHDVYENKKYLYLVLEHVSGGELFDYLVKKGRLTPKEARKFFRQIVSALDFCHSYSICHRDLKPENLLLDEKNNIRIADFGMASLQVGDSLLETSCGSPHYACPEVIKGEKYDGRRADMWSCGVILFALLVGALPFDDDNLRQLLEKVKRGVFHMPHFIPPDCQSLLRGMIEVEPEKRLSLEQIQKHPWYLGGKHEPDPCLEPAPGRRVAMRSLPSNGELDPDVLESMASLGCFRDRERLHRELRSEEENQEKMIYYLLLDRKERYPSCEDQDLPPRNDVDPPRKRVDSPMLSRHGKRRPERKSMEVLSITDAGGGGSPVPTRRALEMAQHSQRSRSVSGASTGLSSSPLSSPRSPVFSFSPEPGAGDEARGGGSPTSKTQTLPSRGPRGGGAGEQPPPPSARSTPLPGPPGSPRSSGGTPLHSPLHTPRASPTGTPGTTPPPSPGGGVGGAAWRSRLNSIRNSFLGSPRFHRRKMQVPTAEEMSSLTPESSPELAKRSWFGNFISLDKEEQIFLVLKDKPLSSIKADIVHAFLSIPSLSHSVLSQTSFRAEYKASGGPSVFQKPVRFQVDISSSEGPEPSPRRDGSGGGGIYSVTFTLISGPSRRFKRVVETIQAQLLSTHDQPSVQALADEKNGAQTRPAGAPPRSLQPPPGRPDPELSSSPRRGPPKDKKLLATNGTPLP
Serine/threonine-protein kinase LATS1 (Homo sapiens), sequence (O95835 whole entry): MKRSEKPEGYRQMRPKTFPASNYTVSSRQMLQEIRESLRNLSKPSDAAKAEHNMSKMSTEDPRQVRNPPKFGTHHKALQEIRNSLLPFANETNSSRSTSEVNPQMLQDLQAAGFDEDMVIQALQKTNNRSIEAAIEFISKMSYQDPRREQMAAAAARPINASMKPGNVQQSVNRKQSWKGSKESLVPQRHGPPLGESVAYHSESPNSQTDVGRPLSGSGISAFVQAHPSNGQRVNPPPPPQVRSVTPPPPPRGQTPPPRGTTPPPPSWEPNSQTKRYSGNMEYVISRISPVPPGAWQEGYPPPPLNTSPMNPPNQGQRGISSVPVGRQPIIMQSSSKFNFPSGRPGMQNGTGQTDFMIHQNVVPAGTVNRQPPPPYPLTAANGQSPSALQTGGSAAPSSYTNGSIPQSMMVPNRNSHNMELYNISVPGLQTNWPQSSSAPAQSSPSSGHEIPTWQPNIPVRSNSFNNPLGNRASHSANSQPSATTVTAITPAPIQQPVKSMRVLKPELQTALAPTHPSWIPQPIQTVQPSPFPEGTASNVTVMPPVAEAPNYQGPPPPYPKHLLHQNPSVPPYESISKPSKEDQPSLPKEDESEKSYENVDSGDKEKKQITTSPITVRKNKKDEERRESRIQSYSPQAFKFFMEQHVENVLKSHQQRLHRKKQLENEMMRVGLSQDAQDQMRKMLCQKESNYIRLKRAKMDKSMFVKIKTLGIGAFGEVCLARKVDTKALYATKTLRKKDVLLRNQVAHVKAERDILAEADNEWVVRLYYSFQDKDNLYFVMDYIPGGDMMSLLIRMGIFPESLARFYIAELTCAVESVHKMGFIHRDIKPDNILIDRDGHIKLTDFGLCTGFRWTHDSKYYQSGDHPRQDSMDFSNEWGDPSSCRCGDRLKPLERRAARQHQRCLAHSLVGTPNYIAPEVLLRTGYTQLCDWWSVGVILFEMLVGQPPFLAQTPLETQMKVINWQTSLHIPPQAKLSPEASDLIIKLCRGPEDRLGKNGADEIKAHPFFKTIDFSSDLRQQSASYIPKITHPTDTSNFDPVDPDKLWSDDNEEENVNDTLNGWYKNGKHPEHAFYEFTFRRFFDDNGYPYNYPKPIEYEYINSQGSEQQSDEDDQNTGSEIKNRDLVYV
Mitogen-activated protein kinase kinase kinase kinase 3 (Homo sapiens), sequence (Q8IVH8 whole entry): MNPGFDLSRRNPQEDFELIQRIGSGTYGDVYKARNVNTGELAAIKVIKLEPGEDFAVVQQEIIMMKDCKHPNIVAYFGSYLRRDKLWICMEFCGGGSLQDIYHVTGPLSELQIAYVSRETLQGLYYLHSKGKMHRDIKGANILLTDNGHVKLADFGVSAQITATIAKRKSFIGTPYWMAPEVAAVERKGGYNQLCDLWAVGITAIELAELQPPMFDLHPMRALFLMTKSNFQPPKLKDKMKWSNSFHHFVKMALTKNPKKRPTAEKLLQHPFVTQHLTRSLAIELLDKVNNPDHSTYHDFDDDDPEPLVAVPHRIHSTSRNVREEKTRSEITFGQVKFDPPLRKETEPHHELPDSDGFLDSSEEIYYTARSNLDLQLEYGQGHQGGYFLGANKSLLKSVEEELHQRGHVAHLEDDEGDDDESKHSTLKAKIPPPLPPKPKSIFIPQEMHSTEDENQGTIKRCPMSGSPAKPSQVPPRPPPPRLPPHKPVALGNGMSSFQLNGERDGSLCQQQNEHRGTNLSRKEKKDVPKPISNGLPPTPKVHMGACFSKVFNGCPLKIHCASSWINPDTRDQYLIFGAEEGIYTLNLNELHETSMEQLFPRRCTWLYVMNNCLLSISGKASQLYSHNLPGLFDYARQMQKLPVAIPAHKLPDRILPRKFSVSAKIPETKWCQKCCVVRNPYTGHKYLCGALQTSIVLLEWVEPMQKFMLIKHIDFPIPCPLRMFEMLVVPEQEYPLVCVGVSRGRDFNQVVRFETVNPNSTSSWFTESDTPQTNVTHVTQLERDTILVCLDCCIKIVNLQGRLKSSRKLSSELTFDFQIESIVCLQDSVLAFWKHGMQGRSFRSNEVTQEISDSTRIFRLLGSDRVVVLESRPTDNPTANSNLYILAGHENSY
Dual serine/threonine and tyrosine protein kinase (Homo sapiens), sequence (Q6XUX3 whole entry): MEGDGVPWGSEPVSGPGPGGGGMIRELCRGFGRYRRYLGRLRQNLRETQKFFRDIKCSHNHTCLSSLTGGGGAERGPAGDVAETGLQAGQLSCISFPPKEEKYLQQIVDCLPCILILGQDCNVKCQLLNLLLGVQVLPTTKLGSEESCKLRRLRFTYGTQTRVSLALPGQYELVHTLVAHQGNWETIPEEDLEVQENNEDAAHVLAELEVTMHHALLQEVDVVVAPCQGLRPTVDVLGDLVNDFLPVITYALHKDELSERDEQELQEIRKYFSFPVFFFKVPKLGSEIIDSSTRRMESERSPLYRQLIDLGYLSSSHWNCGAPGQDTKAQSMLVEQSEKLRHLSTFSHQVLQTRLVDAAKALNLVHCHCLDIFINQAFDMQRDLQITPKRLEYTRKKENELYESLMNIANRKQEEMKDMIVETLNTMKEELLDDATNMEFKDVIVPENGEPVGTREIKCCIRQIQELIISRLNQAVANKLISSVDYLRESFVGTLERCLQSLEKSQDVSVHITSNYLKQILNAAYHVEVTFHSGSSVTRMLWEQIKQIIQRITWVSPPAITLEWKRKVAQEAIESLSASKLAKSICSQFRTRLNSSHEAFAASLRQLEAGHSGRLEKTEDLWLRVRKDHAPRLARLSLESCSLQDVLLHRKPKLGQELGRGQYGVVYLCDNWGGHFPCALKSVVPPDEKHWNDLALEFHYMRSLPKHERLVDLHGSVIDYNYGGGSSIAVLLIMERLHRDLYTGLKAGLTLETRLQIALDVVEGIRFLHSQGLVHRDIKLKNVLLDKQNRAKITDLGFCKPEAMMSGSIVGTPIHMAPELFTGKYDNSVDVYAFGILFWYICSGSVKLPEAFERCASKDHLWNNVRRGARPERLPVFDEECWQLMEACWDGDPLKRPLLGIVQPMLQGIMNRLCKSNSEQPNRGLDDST
MAP kinase-interacting serine/threonine-protein kinase 2 (Homo sapiens), sequence (Q9HBH9 whole entry, looked up): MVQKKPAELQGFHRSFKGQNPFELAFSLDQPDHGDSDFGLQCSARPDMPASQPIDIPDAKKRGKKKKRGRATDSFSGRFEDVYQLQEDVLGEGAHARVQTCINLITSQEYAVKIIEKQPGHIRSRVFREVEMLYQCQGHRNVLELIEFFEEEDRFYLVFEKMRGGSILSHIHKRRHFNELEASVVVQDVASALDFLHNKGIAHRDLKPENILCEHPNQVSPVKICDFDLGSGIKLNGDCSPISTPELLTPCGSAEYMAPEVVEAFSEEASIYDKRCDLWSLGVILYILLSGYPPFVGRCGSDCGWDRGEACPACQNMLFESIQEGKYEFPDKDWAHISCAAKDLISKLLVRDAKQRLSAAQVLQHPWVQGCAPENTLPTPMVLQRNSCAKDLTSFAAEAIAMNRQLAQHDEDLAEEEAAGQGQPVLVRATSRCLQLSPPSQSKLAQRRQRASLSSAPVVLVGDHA
Dual specificity protein kinase CLK1 (Homo sapiens), sequence (P49759 whole entry, looked up): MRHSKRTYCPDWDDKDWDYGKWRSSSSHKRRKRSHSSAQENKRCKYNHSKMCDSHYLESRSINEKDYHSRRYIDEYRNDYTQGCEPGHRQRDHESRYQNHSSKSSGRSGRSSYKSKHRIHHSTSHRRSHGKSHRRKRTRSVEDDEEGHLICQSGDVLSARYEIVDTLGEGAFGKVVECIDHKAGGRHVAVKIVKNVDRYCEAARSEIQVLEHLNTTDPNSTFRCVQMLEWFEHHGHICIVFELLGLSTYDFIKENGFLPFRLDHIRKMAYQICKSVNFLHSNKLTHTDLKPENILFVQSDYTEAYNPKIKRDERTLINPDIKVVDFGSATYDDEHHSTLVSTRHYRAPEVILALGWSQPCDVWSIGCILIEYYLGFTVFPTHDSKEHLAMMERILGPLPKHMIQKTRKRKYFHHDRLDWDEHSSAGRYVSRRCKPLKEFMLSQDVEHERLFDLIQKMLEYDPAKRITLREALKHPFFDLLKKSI
5-hydroxytryptamine receptor 1E (Homo sapiens), sequence (P28566 whole entry): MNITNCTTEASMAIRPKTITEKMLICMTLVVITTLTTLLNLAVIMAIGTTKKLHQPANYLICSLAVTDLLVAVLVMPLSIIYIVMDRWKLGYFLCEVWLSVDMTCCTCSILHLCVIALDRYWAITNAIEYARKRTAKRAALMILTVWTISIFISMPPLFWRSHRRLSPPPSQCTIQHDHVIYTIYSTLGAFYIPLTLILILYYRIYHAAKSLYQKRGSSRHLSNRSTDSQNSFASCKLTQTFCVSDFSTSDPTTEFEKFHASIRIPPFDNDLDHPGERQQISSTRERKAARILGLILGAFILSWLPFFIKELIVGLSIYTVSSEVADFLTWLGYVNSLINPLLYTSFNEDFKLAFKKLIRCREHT

CCC(=N\O)/C(C)=C/c1ccc(F)c(C)c1 [A-226]
inactive: inhibition [1] 8.6% | residual activity [2] 100% | residual activity [3] 86% | residual activity [4] 100% | residual activity [5] 100% | residual activity [6] 100% | inhibition [7] 4.47% | residual activity [8] 65% | residual activity [9] 96% | residual activity [10] 100% | residual activity [11] 100% | residual activity [12] 100% | residual activity [13] 89% | residual activity [14] 95% | residual activity [15] 98% | residual activity [16] 97% | residual activity [17] 98% | residual activity [18] 100% | residual activity [19] 100% | residual activity [20] 84% | residual activity [21] 96% | residual activity [22] 100% | residual activity [23] 100% | residual activity [24] 100% | residual activity [25] 100% | residual activity [26] 96% | residual activity [27] 72% | residual activity [28] 100% | residual activity [29] 100% | residual activity [30] 100% | residual activity [31] 99% | residual activity [32] 100% | residual activity [33] 100% | inhibition [34] -0.42% | residual activity [35] 100% | residual activity [36] 100% | residual activity [37] 100% | residual activity [38] 100% | residual activity [39] 96% | residual activity [40] 100% | inhibition [41] -0.42% | residual activity [42] 91% | residual activity [43] 100% | residual activity [44] 99% | residual activity [45] 100%

CCC(=N\O)/C(C)=C/c1ccc(F)cc1 [A-079]
inactive: inhibition [1] 15.7% | residual activity [2] 100% | residual activity [3] 100% | residual activity [4] 88% | residual activity [5] 85% | residual activity [6] 100% | inhibition [7] 6.66% | residual activity [8] 67% | residual activity [9] 100% | residual activity [10] 86% | residual activity [11] 85% | residual activity [12] 69% | residual activity [13] 100% | residual activity [14] 66% | residual activity [15] 100% | residual activity [16] 100% | residual activity [17] 82% | residual activity [18] 66% | residual activity [19] 100% | residual activity [20] 97% | residual activity [21] 91% | residual activity [22] 99% | residual activity [23] 63% | residual activity [24] 70% | residual activity [25] 100% | residual activity [26] 82% | residual activity [27] 100% | residual activity [28] 87% | residual activity [29] 79% | residual activity [30] 80% | residual activity [31] 100% | residual activity [32] 85% | residual activity [33] 80% | inhibition [34] 8.18% | residual activity [35] 90% | residual activity [36] 81% | residual activity [37] 81% | residual activity [38] 100% | residual activity [39] 93% | residual activity [40] 66% | inhibition [41] -2.32% | residual activity [42] 81% | residual activity [43] 78% | residual activity [44] 100% | residual activity [45] 84%

— ChEMBL document CHEMBL4507256 (2021)
